Test results taken from ChEMBL document CHEMBL3046374, “Preparation of 5-chloro-6-fluoroimidacloprid analogs and comparison of their insecticidal activity in a laboratory test with a 6-chloro-5-fluoro analog” (J Pestic Sci, 2007).

Assays:
Spodoptera litura = experiment: Insecticidal activity against Spodoptera litura second-instar larvae fed on compound pre-treated cabbage leaves assessed as insect mortality measured 5 days post compound treatment; type: functional
Myzus persicae = experiment: Insecticidal activity against Myzus persicae (green peach aphid) first-instar nymphs fed on compound pre-treated egg plant seedlings or Japanese radish leaves assessed as insect mortality measured 5 days post compound treatment; type: functional
Nilaparvata lugens = experiment: Insecticidal activity against Nilaparvata lugens (brown planthopper) second or third-instar nymphs fed on compound pre-treated rice seedlings assessed as insect mortality measured 5 days post compound treatment; type: functional
[1] = Lipophilicity, logP of the compound at 25 degC; type: physicochemical; details: octanol/water

Compound	LD90 (Spodoptera litura) [ppm]	LD90 (Myzus persicae) [ppm]	LD90 (Nilaparvata lugens) [ppm]	logP [1]
N#C/N=C1/SCCN1Cc1cnc(F)c(Cl)c1	>200	50	>200	–
O=[N+]([O-])/N=C1/NCCN1Cc1cnc(Cl)c(F)c1 [5-FLUOROIMIDACLOPRID]	>50	0.2	0.2	0.79
O=[N+]([O-])/N=C1\NCCN1Cc1ccc(Cl)nc1 [IMIDACLOPRID]	>50	0.2	0.2	–
N#C/N=C1/NCCN1Cc1cnc(F)c(Cl)c1	>200	200	>200	–
O=[N+]([O-])/N=C1/NCCN1Cc1cnc(F)c(Cl)c1	>200	200	50	0.98
N#C/N=C1/OCCN1Cc1cnc(F)c(Cl)c1	>200	200	>200	–
O=[N+]([O-])/N=C1/SCCN1Cc1cnc(F)c(Cl)c1	>200	>200	>200	–
